Square brackets hold non-standard residues; d marks the D form. Peptide text beside a SMILES is read from it. Ala(1H-tetrazol-5-yl) = N[C@@H](Cc1nnn[nH]1)C(=O)O
Legend:
[1] = Peptide stability test, Tris buffer (pH 7.0), 60° C. storage, HPLC remaining rate; assay type: physicochemical; settings: Table 6; 100 μM in Tris buffer pH 7.0; HPLC conditions 2
In short: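 Peptides at 100 μM in Tris buffer (pH 7.0) stored 1 or 2 weeks at 60° C.; unstored sample kept at −30° C. as initial reference. Remaining peptide quantified by reversed-phase HPLC at 220 nm (formic acid/acetonitrile gradient, 40° C. column), as water-corrected remaining rate.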

[2] = Peptide stability test, phosphate buffer (pH 7.0), 40° C. storage, HPLC remaining rate; assay type: physicochemical; settings: Table 4; 100 μM in phosphate buffer pH 7.0; HPLC conditions 1
Description: Peptides 1 and 3 to 5 synthesized in Example 2 were weighed and dissolved in phosphate buffer (pH 7.0) to prepare 1.0 mM peptide solutions. The 1.0 mM peptide solutions were then diluted with phosphate buffer to 100 μM. After filtering with Chromatdisk (product of Merck Millipore, Millex-GV, 0.22 μm), each filtrate was dispensed into an LC vial (Waters Deactivated […] prepared peptide solutions were incubated for one month or 2 months in a 40° C. thermostatic bath to obtain stored samples. A simultaneously prepared sample among the peptide solutions that was not stored was used as a standard sample (initial sample). The standard sample and the stored samples were stored at -30° C. until sample analysis. Using the total weight of the aqueous peptide solution and storage vessel as the specimen weight, measurements were recorded as the specimen weights before storage and the specimen weights after storage under different storage conditions. The empty weight of the storage vessel was also measured, and the moisture permeability was determined by the following formula. After stirring the standard sample and the stored samples with a vortex mixer, each peptide solution was transferred to an HPLC vial (Deactivated Qsert vial by Waters Co.). Reverse-phase HPLC (HPLC system: Prominence by Shimadzu Corp.) was conducted under the conditions shown in Table 3 below for analysis of the peptide solutions, and chromatograms were obtained. Guard column: XSelect CSH C18 by Waters Co., 5 μm, 4.6×20 mm Guard Cartridge Detection wavelength: 220 nm Mobile phase A: 0.1% formic acid aqueous solution Mobile phase B: 0.1% acetonitrile formate solution Measuring time: 30 minutes Measuring sample injection rate: 50 μL Flow rate: 1.0 mL/min Sample cooler: 4° C. Column temperature: 40° C. Mobile phase delivery: The mixing ratio of mobile phase A and mobile phase B was varied as shown in Table 3 for linear concentration gradient control. The peak area value for the peptide in the chromatogram was calculated, and the remaining rate (remaining rate before correction for water) was calculated using formula (2). The remaining rate after correction for water was also calculated from the remaining rate before correction for water using formula (3), taking into account the moisture permeability of the vessel. Peptides 10 and 11 synthesized in Example 2 were weighed and dissolved in phosphate buffer (pH 7.0) to prepare 1.0 mM peptide solutions. Each solution was filtered with a Chromatdisk (product of Merck Millipore. Millex-GV, 0.22 μm). Each filtrate was diluted to 100 μM with phosphate buffer (pH 7.0) and dispensed into a tube (Protein LoBind Tube by Eppendorf Co.). The prepared peptide solutions were incubated for one month or 2 months in a 40° C. thermostatic bath to obtain stored samples. A simultaneously prepared sample among the peptide solutions that was not stored was used as a standard sample (initial sample). The standard sample and the stored samples were stored at -30° C. until sample analysis. The remaining rate after correction for water for each peptide among the stored samples was measured in the same manner as Example 4, and the results are shown in Table 8.

Structure (SMILES) | remaining rate after correction for water, 60° C., 1 week preservation [1] [%] | remaining rate after correction for water, 60° C., 2 weeks preservation [1] [%] | remaining rate after correction for water, 40° C., 1 month preservation [2] [%] | remaining rate after correction for water, 40° C., 2 months preservation [2] [%]
CC[C@H](C)[C@H](NC(=O)CNC(=O)[C@H](Cc1nnn[nH]1)NC(=O)[C@H](CO)NC(=O)[C@H](Cc1c[nH]cn1)NC(C)=O)C(=O)N[C@@H](Cc1ccccc1)C(=O)N[C@H](C(=O)N[C@@H](Cc1nnn[nH]1)C(=O)N[C@@H](CO)C(=O)N[C@@H](Cc1ccc(O)cc1)C(=O)N[C@@H](CO)C(=O)N[C@@H](CCCNC(=N)N)C(=O)N[C@@H](Cc1ccc(O)cc1)C(=O)N[C@@H](CCCNC(=N)N)C(=O)N[C@@H](CCCCN)C(=O)N[C@@H](CCC(N)=O)C(=O)N[C@@H](CC(C)C)C(=O)N[C@@H](C)C(=O)N[C@H](C(=O)N[C@@H](CCCCN)C(=O)N[C@@H](CCCCN)C(=O)N[C@@H](Cc1ccc(O)cc1)C(=O)N[C@@H](CC(C)C)C(=O)N[C@@H](C)C(=O)N[C@@H](C)C(=O)N[C@H](C(=O)N[C@@H](CC(C)C)C(N)=O)C(C)C)C(C)C)[C@@H](C)O [Peptide 9] (Ac-HS[Ala(1H-tetrazol-5-yl)]GIFT[Ala(1H-tetrazol-5-yl)]SYSRYRKQLAVKKYLAAVL-NH2) | 98.4 | 92.8 | – | –
CC[C@H](C)[C@H](NC(=O)CNC(=O)[C@H](CC(=O)O)NC(=O)[C@H](CO)NC(=O)[C@@H](N)Cc1cnc[nH]1)C(=O)N[C@@H](Cc1ccccc1)C(=O)N[C@H](C(=O)N[C@@H](CC(=O)O)C(=O)N[C@@H](CO)C(=O)N[C@@H](Cc1ccc(O)cc1)C(=O)N[C@@H](CO)C(=O)N[C@@H](CCCNC(=N)N)C(=O)N[C@@H](Cc1ccc(O)cc1)C(=O)N[C@@H](CCCNC(=N)N)C(=O)N[C@@H](CCCCN)C(=O)N[C@@H](CCC(N)=O)C(=O)N[C@@H](CCSC)C(=O)N[C@@H](C)C(=O)N[C@H](C(=O)N[C@@H](CCCCN)C(=O)N[C@@H](CCCCN)C(=O)N[C@@H](Cc1ccc(O)cc1)C(=O)N[C@@H](CC(C)C)C(=O)N[C@@H](C)C(=O)N[C@@H](C)C(=O)N[C@H](C(=O)N[C@@H](CC(C)C)C(N)=O)C(C)C)C(C)C)[C@@H](C)O [Peptide 1, reference compound] | – | – | 37.4 | 21.3

From patent US20220202905A1, “COMPOSITION FOR PREVENTING OR TREATING NEUROTROPHIC KERATITIS WHICH CONTAINS PACAP PEPTIDE OR STABILIZED PACAP PEPTIDE” (SENJU PHARMACEUTICAL CO., LTD., priority 2019, published 2022)
